Patent US11219221B2 (FarmHannong Co., Ltd., priority 2017, dated 2022)

Key:
[1] = target: Spirulina subsalsa PPO CyPPO16 (SEQ ID NO: 1) variant V305M (MBP fusion); assay: PPO enzyme inhibition (IC50), MBP-fused PPO; type: biochemical; details: 50 μM protoporphyrinogen IX, pH 8.0, room temperature, 30 min
Experimental: (§1) Thus, PPO proteins of wild type and variants were expressed as fused to MBP and were used for experiments.
(§2) The following process for purification of PPO protein was performed in a 4° C. cold room. Amylose resin (NEB) was packed to 1.5×15 cm column (Bio-Rad, Econo Columns 1.5×15 cm, glass chromatography column, max. vol), and the obtained protein extracts were loaded to the column at a flow rate of 0.2 ml/min. The column was washed with 3 column volumes of buffer and the presence of protein in the washing solution was examined. When the protein was no longer detected, the washing procedure was terminated. Then, the MBP-PPO protein was eluted with approximately 2 column volumes of buffer containing 20 mM maltose. The protein concentration of each eluent was determined and the elution was stopped when the protein was no longer detected. Ten microliter of each fraction was investigated for protein quantification and SDS-PAGE analysis. The highly pure fractions of PPO protein variants were used for the enzyme assay.
(§3) Since protoporphyrinogen IX, a substrate of PPO protein, was not commercially available, it was chemically synthesized in the laboratory. Overall process was performed in dark under nitrogen stream. […] of protoporphyrin IX was dissolved in 20 ml of 20% (v/v) EtOH, and stirred under dark condition for 30 minutes. The obtained protoporphyrin IX solution was put into a 15 ml screw tube in an amount of 800 μl, and flushed with nitrogen gas for 5 minutes. To this, 1.5 g of sodium amalgam was added and vigorously shaken for 2 minutes. The lid was opened to exhaust hydrogen gas in the tube. Thereafter, the lid was closed and incubated for 3 minutes. The protoporphyrinogen IX solution was filtered using syringe and cellulose membrane filter. […] To determine the enzyme activity of PPO protein, a reaction mixture was prepared with the following composition (based on 10 ml): 50 mM Tris-Cl (pH 8.0); 50 mM NaCl; 0.04% (v/v) Tween 20; 40 mM glucose (0.072 g); 5 units glucose oxidase (16.6 mg); and 10 units catalase (1 μl).
(§4) Hundred and eighty microliters of a reaction mixture containing the purified PPO protein were placed in 96 well plates and 20 μl of […] were added. […] The reaction proceeded at room temperature for 30 min and the fluorescence of protoporphyrin IX was measured using Microplate reader (Sense, Hidex) (excitation: 405 nm; emission: 633 nm). […] To this, 2.7 N HCl was added, and the absorbance at 408 nm was measured. A standard curve was generated using standard protoporphyrin IX, and PPO activity was measured by calibration of protoporphyrin IX using the standard curve of protoporphyrin IX.

[2] = target: Spirulina subsalsa PPO CyPPO16 (SEQ ID NO: 1) variant R85A (MBP fusion); assay: PPO enzyme inhibition (IC50), MBP-fused PPO; type: biochemical; details: 50 μM protoporphyrinogen IX, pH 8.0, room temperature, 30 min
Experimental: as §1, §2, §3, §4

[3] = target: Spirulina subsalsa PPO CyPPO16, wild type, SEQ ID NO: 1 (MBP fusion); assay: PPO enzyme inhibition (IC50), MBP-fused PPO; type: biochemical; details: 50 μM protoporphyrinogen IX, pH 8.0, room temperature, 30 min
Experimental: as §1, §2, §3, §4

[4] = target: Spirulina subsalsa PPO CyPPO16 (SEQ ID NO: 1) variant V160C (MBP fusion); assay: PPO enzyme inhibition (IC50), MBP-fused PPO; type: biochemical; details: 50 μM protoporphyrinogen IX, pH 8.0, room temperature, 30 min
Experimental: as §1, §2, §3, §4

[5] = target: Spirulina subsalsa PPO CyPPO16 (SEQ ID NO: 1) variant A162L (MBP fusion); assay: PPO enzyme inhibition (IC50), MBP-fused PPO; type: biochemical; details: 50 μM protoporphyrinogen IX, pH 8.0, room temperature, 30 min
Experimental: as §1, §2, §3, §4

[6] = target: Spirulina subsalsa PPO CyPPO16 (SEQ ID NO: 1) variant L327T (MBP fusion); assay: PPO enzyme inhibition (IC50), MBP-fused PPO; type: biochemical; details: 50 μM protoporphyrinogen IX, pH 8.0, room temperature, 30 min
Experimental: as §1, §2, §3, §4

[7] = tested on: CyPPO17 wild type (SEQ ID NO: 3) in PPO-deficient E. coli BT3(ΔPPO); type: cell-based; details: LB agar, 37° C., light, 16 to 20 hours
Experimental: (§5) The mutated CyPPO gene obtained from the Example 2 was transformed to BT3 (ΔPPO) strain which is deficient of PPO activity and cultured in LB media with PPO-inhibiting herbicide, thereby examining whether growth of transformed BT3 was not inhibited.
(§6) BT3 competent cells were transformed with the pET303-CyPPO16 and pET303-CyPPO17 plasmids and those with a mutation(s) constructed in Example 2 respectively, and were cultured in LB agar media containing carbenicillin (Gold Biotechnology, Co., Ltd.).
(§7) Single colony of E. coli transformed with each CyPPO gene was cultured in 3 ml of LB broth containing carbenicillin overnight, and then was subcultured until absorbance (0D600) reached 0.5 to 1. Then, it was diluted with LB broth to OD600=0.5. Again, the diluted solution was serially diluted 4 times by a factor of one tenth.
(§8) The LB agar media (LB 25 g/l, Bacto agar 15 g/l) containing carbenicillin (100 μg/ml) and 0 to 4,000 μM of various herbicides dissolved in DMSO was prepared. Next, 10 μl of each diluted solution was dropped on the plate and cultured at 37° C. under light (Tables 7 and 9, FIGS. 2 to 6, and 18 to 22) or dark (Tables 8 and 10, FIGS. 7 to 17, and 23 to 33) for 16 to 20 hours. Then, extent of tolerance was evaluated.
(§9) The extent of herbicide tolerance of the mutated genes was evaluated by comparing that of mutated genes with that of wild type. The relative tolerance was represented with “+” as a factor of 10 times. Evaluation result was listed in Tables 7 to10 and FIGS. 2 to 33:
(§10) In Tables 7 to 10, tolerance level was presented as of tolerance of wild type and of variants equivalent to that of wild type, and was done as ‘+’ per each 10 fold resistance until ‘+++++’ as maximal resistance. (Tolerance level was evaluated by relative growth level of variants to that of wild type in the media containing highest concentration of herbicide; ‘+’=1-9 fold higher tolerance, ‘++’=10-99 fold higher tolerance, ‘+++’=100-999 fold higher tolerance, ‘++++’=1,000-9,999 fold higher tolerance, ‘+++++’=more than 10,000 fold higher tolerance)

[8] = tested on: CyPPO16 wild type (SEQ ID NO: 1) in PPO-deficient E. coli BT3(ΔPPO); type: cell-based; details: LB agar, 37° C., light, 16 to 20 hours
Experimental: as §5, §6, §7, §8, §9, §10

[9] = tested on: CyPPO17 (SEQ ID NO: 3) variant F359C in PPO-deficient E. coli BT3(ΔPPO); type: cell-based; details: LB agar, 37° C., light, 16 to 20 hours
Experimental: as §5, §6, §7, §8
(§11) The extent of herbicide tolerance of the mutated genes was evaluated by comparing that of mutated genes with that of wild type. The relative tolerance was represented with “+” as a factor of 10 times.
(§12) In Tables 7 to 10, tolerance level was presented as of tolerance of wild type and of variants equivalent to that of wild type, and was done as ‘+’ per each 10 fold resistance until ‘+++++’ as maximal resistance.

[10] = tested on: CyPPO17 (SEQ ID NO: 3) variant F359L in PPO-deficient E. coli BT3(ΔPPO); type: cell-based; details: LB agar, 37° C., light, 16 to 20 hours
Experimental: as §5, §6, §7, §8, §11, §12

[11] = tested on: CyPPO17 (SEQ ID NO: 3) variant A166L in PPO-deficient E. coli BT3(ΔPPO); type: cell-based; details: LB agar, 37° C., light, 16 to 20 hours
Experimental: as §5, §6, §7, §8, §11, §12

[12] = tested on: CyPPO17 (SEQ ID NO: 3) variant F359I in PPO-deficient E. coli BT3(ΔPPO); type: cell-based; details: LB agar, 37° C., light, 16 to 20 hours
Experimental: as §5, §6, §7, §8, §11, §12

[13] = tested on: CyPPO17 (SEQ ID NO: 3) variant V304L in PPO-deficient E. coli BT3(ΔPPO); type: cell-based; details: LB agar, 37° C., light, 16 to 20 hours
Experimental: as §5, §6, §7, §8, §11, §12

[14] = tested on: CyPPO16 (SEQ ID NO: 1) variant F360C in PPO-deficient E. coli BT3(ΔPPO); type: cell-based; details: LB agar, 37° C., light, 16 to 20 hours
Experimental: as §5, §6, §7, §8, §11, §12

[15] = tested on: CyPPO16 (SEQ ID NO: 1) variant V305M in PPO-deficient E. coli BT3(ΔPPO); type: cell-based; details: LB agar, 37° C., light, 16 to 20 hours
Experimental: as §5, §6, §7, §8, §11, §12

[16] = tested on: CyPPO16 (SEQ ID NO: 1) variant F360I in PPO-deficient E. coli BT3(ΔPPO); type: cell-based; details: LB agar, 37° C., light, 16 to 20 hours
Experimental: as §5, §6, §7, §8, §11, §12

[17] = tested on: CyPPO17 (SEQ ID NO: 3) variant A166C in PPO-deficient E. coli BT3(ΔPPO); type: cell-based; details: LB agar, 37° C., light, 16 to 20 hours
Experimental: as §5, §6, §7, §8, §11, §12

[18] = tested on: CyPPO17 (SEQ ID NO: 3) variant F359M in PPO-deficient E. coli BT3(ΔPPO); type: cell-based; details: LB agar, 37° C., light, 16 to 20 hours
Experimental: as §5, §6, §7, §8, §11, §12

[19] = tested on: CyPPO16 (SEQ ID NO: 1) variant A162C in PPO-deficient E. coli BT3(ΔPPO); type: cell-based; details: LB agar, 37° C., light, 16 to 20 hours
Experimental: as §5, §6, §7, §8, §11, §12

[20] = tested on: CyPPO16 (SEQ ID NO: 1) variant A162L in PPO-deficient E. coli BT3(ΔPPO); type: cell-based; details: LB agar, 37° C., light, 16 to 20 hours
Experimental: as §5, §6, §7, §8, §11, §12

[21] = tested on: CyPPO16 (SEQ ID NO: 1) variant F360M in PPO-deficient E. coli BT3(ΔPPO); type: cell-based; details: LB agar, 37° C., light, 16 to 20 hours
Experimental: as §5, §6, §7, §8, §11, §12

[22] = tested on: CyPPO17 (SEQ ID NO: 3) variant V304M in PPO-deficient E. coli BT3(ΔPPO); type: cell-based; details: LB agar, 37° C., light, 16 to 20 hours
Experimental: as §5, §6, §7, §8, §11, §12

[23] = tested on: CyPPO16 (SEQ ID NO: 1) variant F360L in PPO-deficient E. coli BT3(ΔPPO); type: cell-based; details: LB agar, 37° C., light, 16 to 20 hours
Experimental: as §5, §6, §7, §8, §11, §12

[24] = tested on: CyPPO16 (SEQ ID NO: 1) variant F360V in PPO-deficient E. coli BT3(ΔPPO); type: cell-based; details: LB agar, 37° C., light, 16 to 20 hours
Experimental: as §5, §6, §7, §8, §11, §12

## Cc1nn(-c2cc(NS(C)(=O)=O)c(Cl)cc2Cl)c(=O)n1C(F)F [sulfentrazone]
[1]
  IC50: 305 nM
[2]
  IC50: 1040 nM
[3]
  IC50: 245 nM
[4]
  IC50: 584 nM
[5]
  IC50: 1100 nM
[6]
  IC50: 1830 nM

## CC(C)N(C)S(=O)(=O)NC(=O)c1cc(-n2c(=O)cc(C(F)(F)F)n(C)c2=O)c(F)cc1Cl [saflufenacil]
[7]
  Herbicide tolerance (relative to wild type): −
[8]
  Herbicide tolerance (relative to wild type): −
[9]
  Herbicide tolerance (relative to wild type): +++ (100-999 fold higher tolerance)
[10]
  Herbicide tolerance (relative to wild type): +++ (100-999 fold higher tolerance)
[11]
  Herbicide tolerance (relative to wild type): +++ (100-999 fold higher tolerance)
[12]
  Herbicide tolerance (relative to wild type): +++ (100-999 fold higher tolerance)
[13]
  Herbicide tolerance (relative to wild type): + (1-9 fold higher tolerance)
[14]
  Herbicide tolerance (relative to wild type): +++ (100-999 fold higher tolerance)
[15]
  Herbicide tolerance (relative to wild type): +++ (100-999 fold higher tolerance)
[16]
  Herbicide tolerance (relative to wild type): +++ (100-999 fold higher tolerance)
[17]
  Herbicide tolerance (relative to wild type): +++ (100-999 fold higher tolerance)
[18]
  Herbicide tolerance (relative to wild type): +++ (100-999 fold higher tolerance)
[19]
  Herbicide tolerance (relative to wild type): +++ (100-999 fold higher tolerance)
[20]
  Herbicide tolerance (relative to wild type): +++ (100-999 fold higher tolerance)
[21]
  Herbicide tolerance (relative to wild type): +++ (100-999 fold higher tolerance)
[22]
  Herbicide tolerance (relative to wild type): +++ (100-999 fold higher tolerance)
[23]
  Herbicide tolerance (relative to wild type): +++ (100-999 fold higher tolerance)
[24]
  Herbicide tolerance (relative to wild type): +++ (100-999 fold higher tolerance)
